Source: US20090050143A1, “MEDICINAL FORMULATION CONTAINER WITH A TREATED METAL SURFACE” (priority 2006, published 2009)
Each block holds one molecule with its values, some of them ahead of it.

Tests used:
Type in all cases: physicochemical
[1] = Valve deposition measurement
From the text: Metered dose inhalers (MDIs) were fired 122 times to waste. The MDI was shaken for not less than 3 seconds prior to each actuation with a delay of at least 30 seconds between successive actuations. An additional 5 shots were then fired to waste with the MDI in a valve up orientation to clean out the valve. The metering valves were then removed from the MDIs and the outside of the stem cleaned to remove any residual drug adhering to the outer surface. The valve was immersed in diluent (acetonitrile:water 75:25 v/v) and sonicated for approximately 2 hours followed by shaking for at least 30 minutes. An aliquot was removed and analyzed for drug content by conventional HPLC analysis (albuterol sulfate and pirbuterol acetate: 55% 100 mM triethylamine phosphate with 5 mM sodium dodecyl sulfate, pH 2.5/45% methanol v:v, UV detection at 225 nm; flunisolide hemihydrate: 60% water/40% acetonitrile v:v, UV detection at 244 nm). Results are reported as an average of 5 to 8 replicates unless otherwise noted.
Individual valve components (stem, tank, spring, ferrule, and bottle emptier) were initially soaked in isopropanol (analytical reagent grade) for 30 minutes while exposed to ultrasonic agitation. Excess solvent was removed and the components were air dried.
The valve components were then immersed in a 0.1% w/w solution of A1 in methyl tertiary butyl ether (analytical reagent grade) in a sealed flask with a vacuum valve that was placed in a sonicator bath. The flask was sonicated and a vacuum was pulled until air escaped from the small bore in the stems (at least 2 minutes). The vacuum valve was then closed and the sample maintained under vacuum and sonication for an additional 30 minutes. Excess coating solution was then removed and the metering valves were rinsed and sonicated under vacuum in fresh isopropanol (analytical reagent grade) for 15 minutes. Excess rinsing solution was then removed and the metering valves were rinsed and sonicated under vacuum a second time in fresh isopropanol (analytical reagent grade) for 15 minutes. Excess rinsing solution was again removed and the metering valves were dried at 50° C. for at least 12 hours. The components were then assembled to form treated metered dose inhaler metering valves.
[…] Approximately 8.7 g of medicinal formulation was added to an aluminum canister with an internal coating of FEP (tetrafluoroethylene/hexafluoropropylene copolymer). The canister was then sealed by crimping a treated valve onto the canister to form an MDI. The MDIs were stored in a valve down orientation after filling to ensure contact of the formulation with the valve. The amount of albuterol sulfate adsorbed to the valve was 112 (+/−25) μg measured according to the valve deposition method described above.

[2] = Visual observation of the inside surface of the metering tanks
[3] = Drug adsorption to aluminum MDI canister on storage; settings: 3 days at room temperature
Method: (§1) The internal surface of an aluminum metered dose inhaler canister was treated with compound A1 (n-C4F9—(CH2)11—PO3H2) which may be prepared as described in Example 2 of U.S. Pat. No. 6,824,882, the disclosure of which is hereby incorporated by reference) as follows. The canister was initially soaked in heptane (analytical reagent grade) for 30 minutes while exposed to ultrasonic agitation. The canister was then rinsed with heptane (analytical reagent grade) for one minute followed by a rinse with isopropanol (analytical reagent grade) and allowed to air dry. The canister was then immersed in a 0.1% w/w solution of A1 in methyl tertiary butyl ether (analytical reagent grade) for 30 minutes while exposed to ultrasonic agitation. The canister was then rinsed in methyl tertiary butyl ether (analytical reagent grade) for one minute and allowed to air dry.
Fluticasone propionate was added to HFA-134A propellant to prepare a medicinal formulation with a fluticasone propionate concentration of 0.0083% w/w. Approximately 13 g of medicinal formulation was added to the treated canister which was sealed with an untreated aluminum blind ferrule (i.e., a casing member lacking valve components). The canister was stored in an upright position after filling to prevent contact of the medicinal formulation with the untreated aluminum surface of the blind ferrule. The solution was stored in the canister for 3 days at room temperature. The amount of fluticasone propionate adsorbed to the canister was 2.4% (+/−1.1%) measured according to the method described above.
A canister was prepared and tested as described in Example 1 with the exception that the canister was filled with a 0.0083% w/w formulation of fluticasone propionate in HFA-227. The solution was stored in the canister for 3 days at room temperature. The amount of fluticasone propionate adsorbed to the canister was 9.7% (+/−6.5%) measured according to the method described above.
An untreated aluminum canister was filled with the medicinal formulation of Example 1. The solution was stored in the canister for 3 days at room temperature. The amount of fluticasone propionate adsorbed to the canister was 23.2% (+/−1.5%) measured according to the method described above.
An untreated aluminum canister was filled with the medicinal formulation of Example 2. The solution was stored in the canister for 3 days at room temperature. The amount of fluticasone propionate adsorbed to the canister was 35.5% (+/−1.8%) measured according to the method described above.

[4] = Total drug content of canisters filled from stainless steel filling system (HPLC); settings: 0.0083% w/w suspension in HFA-227a
Method: The vessel was initially soaked in heptane (analytical reagent grade) for 30 minutes while exposed to ultrasonic agitation. The vessel was then rinsed with heptane (analytical reagent grade) for one minute followed by a rinse with isopropanol (analytical reagent grade) and allowed to air dry. The vessel was then immersed in a 0.1% w/w solution of A1 in methyl tertiary butyl ether (analytical reagent grade) for 30 minutes while exposed to ultrasonic agitation. The vessel was then rinsed in methyl tertiary butyl ether (analytical reagent grade) for one minute and allowed to air dry. Additional components of the filling system that contact medicinal formulation during the filling process (solenoid, tubing, stirring paddles, mixing baffles) were treated in the same manner as the vessel.
HFA-227a (600.7 g) was chilled and added to the filling vessel. […] The total drug content (i.e., drug suspended in formulation, as well as drug adhered to the canister) of 6 representative canisters (numbers 9, 11, 13, 14, 16, and 18 in the filling sequence) was analyzed using high performance liquid chromatography. A target total drug content was calculated based on the exact amount of formulation added to each canister and the nominal concentration in the filling vessel. […]

[5] = Triamcinolone acetonide remaining after storage with aluminum oxide powder (HPLC)
Method: Aluminum oxide powder (Aldrich, neutral, activated Brockmann I, 150 mesh), which mimics aluminum oxide existing on the inner surface of aluminum containers was surface treated by being immersed in a 0.1% w/w solution of A1 in methyl tertiary butyl ether (analytical reagent grade) for 30 minutes while exposed to ultrasonic agitation. The methyl tertiary butyl ether solution was decanted and the powder was allowed to air dry. A triamcinolone stock solution (4 mM) was prepared by adding triamcinolone acetonide to ethanol. Approximately 0.1 g of treated powder was then placed in a vial containing 2 mL of triamcinolone stock solution and stored at 70° C. An extract of the triamcinolone solution was taken after one day of storage and analyzed using high performance liquid chromatography to determine remaining drug content. The amount of drug remaining is reported (in Table 1) as a percentage of the initial amount of drug present and was determined as the average of 3 independent measurements.
Aluminum oxide powder was surface treated and tested as described above with a variety of other organic surface treatment compounds. The type of compound, the amount of triamcinolone acetonide (TA) remaining after 1 day storage, and the percentage of aluminum oxide (AO) powder remaining chemically treated after exposure to drug solution in shown in Table 1.
Approximately 0.1 g of untreated aluminum oxide powder was placed in a vial containing 2 mL of triamcinolone stock solution and stored at 70° C. An extract of the triamcinolone solution was taken after one day of storage and analyzed using high performance liquid chromatography to determine remaining drug content.

[6] = Triamcinolone acetonide remaining after storage in stainless steel canister (HPLC); settings: 2 mM in ethanol
Method: as §1, with “a stainless steel” for “an aluminum”, “(n-C4F9—(CH2)11—PO3H2)” for “(n-C4F9—(CH2)11—PO3H2) which may be prepared as described in Example 2 of U.S. Pat. No. 6,824,882, the disclosure of which is hereby incorporated by reference)”
A triamcinolone stock solution (2 mM) was prepared by adding triamcinolone acetonide to ethanol. The canister was filled with 5 mL of the triamcinolone stock solution, sealed and stored at 70° C. An extract of the triamcinolone solution was taken after one day of storage and analyzed using high performance liquid chromatography to determine remaining drug content. […] An extract of the triamcinolone solution was taken after 7 days of storage and analyzed using high performance liquid chromatography to determine remaining drug content. The amount of triamcinolone acetonide remaining after 7 days was 83.0%.
An untreated stainless steel canister was filled with the medicinal formulation of Example 11. The amount of triamcinolone acetonide remaining after 1 day was 88.0%. An extract of the triamcinolone solution was taken after 7 days of storage and analyzed using high performance liquid chromatography to determine remaining drug content. The amount of triamcinolone acetonide remaining after 7 days was 18.0%.

[7] = A1-treated valve, 0.02% w/w in HFA-227
[8] = untreated valve, 0.02% w/w in HFA-227
[9] = A1-treated valve vs untreated valves, 0.02% w/w in HFA-227
[10] = A1-treated valve, 0.05% w/w and 10% w/w ethanol in HFA-227
[11] = untreated valve, 0.05% w/w and 10% w/w ethanol in HFA-227

Molecule: pirbuterol acetate
amount of drug adsorbed to the valve [1, 7]: 36 (+/−13) μg | amount of drug adsorbed to the valve [1, 8]: 43 (+/−12) μg | visual observation of drug deposition in metering tanks [2, 9]: considerably less drug deposition

Molecule: CCC(=O)O[C@]1(C(=O)SCF)[C@H](C)C[C@H]2[C@@H]3C[C@H](F)C4=CC(=O)C=C[C@]4(C)[C@@]3(F)[C@@H](O)C[C@@]21C [fluticasone propionate]
amount of fluticasone propionate adsorbed to the canister ([3]; A1-treated aluminum canister, 0.0083% w/w in HFA-134A): 2.4% | amount of fluticasone propionate adsorbed to the canister ([3]; A1-treated aluminum canister, 0.0083% w/w in HFA-227): 9.7% | amount of fluticasone propionate adsorbed to the canister ([3]; untreated aluminum canister, 0.0083% w/w in HFA-134A): 23.2% | amount of fluticasone propionate adsorbed to the canister ([3]; untreated aluminum canister, 0.0083% w/w in HFA-227): 35.5% | average total drug content in the filled canisters, less than the target total drug content ([4]; A1-treated stainless steel filling system, 6 canisters): 2% | average total drug content in the filled canisters, less than the target total drug content ([4]; untreated stainless steel filling system): 58%

Molecule: CC1(C)O[C@@H]2C[C@H]3[C@@H]4CCC5=CC(=O)C=C[C@]5(C)[C@@]4(F)[C@@H](O)C[C@]3(C)[C@]2(C(=O)CO)O1 [triamcinolone acetonide]
% TA remaining ([5]; untreated aluminum oxide powder (C3), 4 mM triamcinolone acetonide in ethanol, 70° C, 1 day): 11.5 (+/−1.2) % | amount of triamcinolone acetonide remaining ([6]; A1-treated stainless steel canister, 70° C, 1 day): 94.9% | amount of triamcinolone acetonide remaining ([6]; A1-treated stainless steel canister, 70° C, 7 days): 83.0% | amount of triamcinolone acetonide remaining ([6]; untreated stainless steel canister, 1 day): 88.0% | amount of triamcinolone acetonide remaining ([6]; untreated stainless steel canister, 7 days): 18.0%

Molecule: CC1(C)O[C@@H]2C[C@H]3[C@@H]4C[C@H](F)C5=CC(=O)C=C[C@]5(C)[C@H]4[C@@H](O)C[C@]3(C)[C@]2(C(=O)CO)O1 [flunisolide]
amount of drug adsorbed to the valve [1, 7]: 23 (+/−7) μg | amount of drug adsorbed to the valve [1, 8]: 41 (+/−7) μg | visual observation of drug deposition in metering tanks [2, 9]: considerably less drug deposition

Molecule: albuterol sulfate
amount of drug adsorbed to the valve [1, 10]: 67 (+/−18) μg | amount of drug adsorbed to the valve ([1]; A1-treated valve, 0.05% w/w in HFA-134A, stored valve down): 112 (+/−25) μg | amount of drug adsorbed to the valve ([1]; A1-treated valve, 0.05% w/w in HFA-227): 134 (+/−54) μg | amount of drug adsorbed to the valve [1, 11]: 75 (+/−9) μg | amount of drug adsorbed to the valve ([1]; untreated valve, 0.05% w/w in HFA-134A): 138 (+/−24) μg | amount of drug adsorbed to the valve ([1]; untreated valve, 0.05% w/w in HFA-227): 167 (+/−28) μg | visual observation of drug deposition in metering tanks ([2]; A1-treated valve vs untreated valves, 0.05% w/w in HFA-134A): considerably less drug deposition | visual observation of drug deposition in metering tanks ([2]; A1-treated valve vs untreated valves, 0.05% w/w in HFA-227): considerably less drug deposition | visual observation of drug deposition in metering tanks [2, 10]: minimal drug deposition | visual observation of drug deposition in metering tanks [2, 11]: minimal drug deposition

Further lines, results first:

% TA remaining ([5]; 24 h, 4 mM): 93.2 (+/−3.6) %
Molecule: CCCCCCCCCCCCCCCCP(=O)(O)O [A3, 1-phosphonohexadecane]

% TA remaining ([5]; 24 h, 4 mM): 97.4 (+/−0.1) %
Molecule: CC(C)CCCC(C)CCCC(C)CCCC(C)CCP(=O)(O)O (stereo not drawn) [A2, 1-phosphono-3,7,11,15-tetramethylhexadecane]

% TA remaining ([5]; 24 h, 4 mM): 71.5 (+/−3.2) %
Molecule: CC(C)CCCC(C)CCCC(C)CCCC(C)CCC(=O)O (stereo not drawn) [A5, Phytanyl carboxylic acid]
